# Results as given in patent US12419869B2, “Methods of treating multiple sclerosis” (Vanda Pharmaceuticals Inc., priority 2021, dated 2025).
# Tests used:
# [1] = test system: heart rate; test: Heart rate pharmacodynamics, dose dependence; set-up: species or system human; conditions: in vivo
# Method: PONVORY causes a transient dose-dependent reduction in heart rate (HR) and AV conduction delays upon treatment initiation [see Warnings and Precautions (5.2)]. The heart rate decreases plateaued at doses greater than or equal to 40 mg [2 times the recommended maintenance dosage], and bradyarrhythmic events (AV blocks) were detected at a higher incidence under PONVORY treatment, compared to placebo. This effect starts within the first hour of dosing and is maximal at 2-4 hours post-dose. HR generally returns to pre-dose values by 4-5 hours post-dose on Day 1, and the effect diminishes with repeated administration. indicating tolerance.
# [2] = clinical; conditions: human, in vivo
# Method: Steady-state levels are approximately 2.0 to 2.6-fold greater than with a single dose, and are achieved following 3 days of administration of the maintenance dose of ponesimod.
# The pharmacokinetics of ponesimod are similar in healthy subjects and patients with multiple sclerosis, with 25% inter-subject variability across studies.
# The time to reach maximum plasma concentration of ponesimod is 2-4 hours post-dose.
# Following IV administration in healthy subjects, the steady-state volume of distribution of ponesimod is 160 L.
# [3] = Excretion after single oral administration of 14C-ponesimod; format: in vivo, human; conditions: single oral 14C-ponesimod
# Source text: Following a single oral administration of ^14C-ponesimod, 57% to 80% of the dose was recovered in feces (16% as unchanged ponesimod), and 10% to 18% in urine (no unchanged ponesimod).
# [4] = test system: P-gp, BCRP, OATP1B1, or OATP1B3 transporters; test: Transporter substrate assessment; format: in vitro ADME
# Source text: Drugs that are inhibitors of these transporters are unlikely to impact the PK of ponesimod.
# [5] = test system: CYP or UGT enzymes, or transporters; test: In vitro investigations of drug-drug interaction potential; format: in vitro ADME; conditions: at recommended dose of 20 mg once-daily
# [6] = target: S1P receptor 1 (Homo sapiens, UniProt P21453); test: S1P receptor binding / activity
# Chain of S1P receptor 1 (P21453 whole entry): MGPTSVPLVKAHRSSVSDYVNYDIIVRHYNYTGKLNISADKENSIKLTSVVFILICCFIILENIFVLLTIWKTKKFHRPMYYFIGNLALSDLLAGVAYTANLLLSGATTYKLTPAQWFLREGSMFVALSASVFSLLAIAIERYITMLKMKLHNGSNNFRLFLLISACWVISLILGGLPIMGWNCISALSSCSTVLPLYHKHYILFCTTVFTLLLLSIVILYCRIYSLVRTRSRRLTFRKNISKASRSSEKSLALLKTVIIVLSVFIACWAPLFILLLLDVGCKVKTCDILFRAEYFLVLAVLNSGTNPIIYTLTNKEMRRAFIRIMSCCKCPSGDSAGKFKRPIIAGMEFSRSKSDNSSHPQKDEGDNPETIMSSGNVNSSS
# Source text: Ponesimod is extensively metabolized prior to excretion in humans, though unchanged ponesimod was the main circulating component in plasma. […] M13 and M12 are respectively about 20% and 6% of total drug-related exposure.
# [7] = Solubility in water; format: physicochemical
# [8] = test system: female rats; test: Pre- and postnatal development study in female rats, oral; format: in vivo, rat
# Source text: There are no data on the presence of PONVORY in human milk, the effects on the breastfed infant, or the effects of the drug on milk production.
# [9] = test system: mice; test: Carcinogenesis, mice, oral up to 2 years; format: in vivo, mouse
# Method: Plasma exposure (AUC) at to lowest dose tested in males (50 mg/kg/day) was approximately 5 times that in humans at the recommended human dose (RHD) of 20 mg.
# [10] = Ames assay; format: cell-based; conditions: in vitro
# Source text: (§1) Ponesimod was negative in a battery of in vitro (Ames, chromosomal aberration in mammalian cells) and in vivo (micronucleus in rat) assays.
# [11] = test system: rat; test: Micronucleus in rat; conditions: in vivo
# Source text: as §1
# [12] = test system: mice, rats, and dogs; conditions: in vivo
# Source text: At the higher doses tested in short-term studies, alveolar histiocytosis was associated with lung edema, emphysema, or hyalinosis, and with bronchioloalveolar hyperplasia after cessation of dosing in rats and alveolar histiocytosis and hyalinosis in dogs. Effects tended to be absent or less severe after chronic treatment. These findings are considered secondary to increased vascular permeability caused by S1P1 receptor modulation.
structure (smiles),measurement,setting,value
"CCC/N=C1\S/C(=C\c2ccc(OC[C@H](O)CO)c(Cl)c2)C(=O)N1c1ccccc1C [Ponesimod, (R)-5-[3-chloro-4-(2,3-dihydroxy-propoxy)-benz[Z]ylidene]-2-([Z]-propylimino)-3-o-tolyl-thiazolidin-4-one]",Dose at which heart rate decreases plateaued,[1],greater than or equal to 40 mg
same,Effect of food on pharmacokinetics,[2],does not have a clinically relevant effect
same,Influence of age (range: 17 to 65 years) on PK,[2],not identified to significantly influence
same,Influence of gender on pharmacokinetics,[2],no clinically significant influence
same,Inter-subject variability of pharmacokinetics across studies,[2],25%
same,Pharmacokinetic differences between Japanese and Caucasian subjects,[2],No clinically relevant pharmacokinetic differences
same,Time to steady state on maintenance dose,[2],3 days
same,clearance,[2]; iv,63.3 mL/min
same,Increase of Cmax and AUC with dose,[2]; po,approximately dose-proportionally
same,Steady-state levels relative to a single dose,[2]; po,2.0-2.6 fold
same,Time to reach maximum plasma concentration,[2]; po,2 to 4 h
same,half-life,[2]; po,~33 h
same,bioavailability,"[2]; po, 10 mg",84%
same,Dose recovered in feces as unchanged ponesimod,[3],16%
same,"Substrate of P-gp, BCRP, OATP1B1, or OATP1B3 transporters",[4],not a substrate
same,"Drug-drug interaction potential for CYP or UGT enzymes, or transporters",[5],do not show any clinically relevant drug-drug interaction potential
same,Binding to S1P receptor 1,[6],binds with high affinity
same,Solubility in water,[7],practically insoluble or insoluble in water
same,No-effect dose for adverse effects on pre- and postnatal development in rats,"[8]; 5, 10, or 20 mg/kg oral",not identified
same,Plasma exposure (AUC) in dams at lowest dose tested vs humans at RHD,"[8]; rat, in vivo",less than that in humans
same,Presence in offspring after dosing of female rats during pregnancy and lactation,[8]; suggesting excretion in milk,detected in the plasma of the offspring
same,Carcinogenicity findings in mice,"[9]; males all doses (50, 150, 400 mg/kg/day), females highest dose (300 mg/kg/day)",incidences in hemangiosarcoma and combined hemangioma and hemangiosarcoma
same,Plasma exposure (AUC) at lowest dose in male mice (50 mg/kg/day) relative to humans at RHD,"[9]; mouse, in vivo",approximately 5 times
same,Ames assay result,[10],negative
same,Micronucleus in rat result,[11],negative
same,Lung findings in oral toxicity studies,[12],Increases in lung weight and histopathology
